Measured values: ChEMBL document CHEMBL1201862, “PubChem BioAssay data set” (2004)
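These data come from cells grown in 96-well plates and exposed to compound for 48 hours at five concentrations. GI50: concentration for 50% inhibition of growth.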 The source made the active and inactive calls. Rule as the data show it: active = GI50 up to about 1.1 µM and inactive = higher.

Assays:
Assay in all cases: inhibition of tumour cell growth, NCI panel, 48 h
786-0 = test system: 786-0
A498 = test system: A498
A549 = test system: A549
ACHN = test system: ACHN
BT-549 = test system: BT-549
CAKI-1 = test system: CAKI-1
CCRF-CEM = test system: CCRF-CEM
COLO 205 = test system: COLO 205
DU-145 = test system: DU-145
EKVX = test system: EKVX
HCC 2998 = test system: HCC 2998
HCT-116 = test system: HCT-116
HCT-15 = test system: HCT-15
HL-60 = test system: HL-60
HOP-92 = test system: HOP-92
HT-29 = test system: HT-29
Hs-578T = test system: Hs-578T
IGROV-1 = test system: IGROV-1
K562 = test system: K562
KM12 = test system: KM12
LOX IMVI = test system: LOX IMVI
M14 = test system: M14
MCF7 = test system: MCF7
MDA-MB-231 = test system: MDA-MB-231
MDA-MB-435 = test system: MDA-MB-435
MDA-N = test system: MDA-N
MOLT-4 = test system: MOLT-4
Malme-3M = test system: Malme-3M
NCI-H23 = test system: NCI-H23
NCI-H460 = test system: NCI-H460
NCI-H522 = test system: NCI-H522
NCI/ADR-RES = test system: NCI/ADR-RES
OVCAR-3 = test system: OVCAR-3
OVCAR-4 = test system: OVCAR-4
OVCAR-5 = test system: OVCAR-5
OVCAR-8 = test system: OVCAR-8
PC-3 = test system: PC-3
RPMI-8226 = test system: RPMI-8226
RXF 393 = test system: RXF 393
SF-268 = test system: SF-268
SF-295 = test system: SF-295
SF-539 = test system: SF-539
SK-MEL-28 = test system: SK-MEL-28
SK-MEL-2 = test system: SK-MEL-2
SK-MEL-5 = test system: SK-MEL-5
SK-OV-3 = test system: SK-OV-3
SN12C = test system: SN12C
SNB-19 = test system: SNB-19
SNB-75 = test system: SNB-75
SR = test system: SR
SW-620 = test system: SW-620
T47D = test system: T47D
TK-10 = test system: TK-10
U-251 = test system: U-251
UACC-257 = test system: UACC-257
UACC-62 = test system: UACC-62
UO-31 = test system: UO-31
HOP-62 = test system: HOP-62
NCI-H226 = test system: NCI-H226

Measured: GI50

O=[N+]([O-])C(/C=C(\Cl)[N+](=O)[O-])=C(Nc1ccccc1)Nc1ccccc1
inactive: 786-0 3.7 µM | A498 17.9 µM | A549 17 µM | ACHN 13.2 µM | BT-549 7.24 µM | CAKI-1 13.7 µM | CCRF-CEM 1.44 µM | COLO 205 8.53 µM | DU-145 17.1 µM | EKVX 13.5 µM | HCC 2998 21.4 µM | HCT-116 1.98 µM | HL-60 2.59 µM | HOP-92 4.69 µM | HT-29 6.21 µM | Hs-578T 8.59 µM | IGROV-1 17.2 µM | K562 2.94 µM | KM12 11.9 µM | LOX IMVI 16 µM | M14 9.84 µM | MDA-MB-231 10.7 µM | MDA-MB-435 5 µM | MDA-N 5.58 µM | MOLT-4 1.75 µM | Malme-3M 8.67 µM | NCI-H23 7.96 µM | NCI-H460 16.4 µM | NCI-H522 2.21 µM | NCI/ADR-RES 7.93 µM | OVCAR-3 5.19 µM | OVCAR-4 6.76 µM | OVCAR-5 5.36 µM | OVCAR-8 8.41 µM | PC-3 14.6 µM | RPMI-8226 2.28 µM | RXF 393 4.65 µM | SF-268 14.3 µM | SF-295 17.3 µM | SF-539 11.2 µM | SK-MEL-28 9.86 µM | SK-MEL-2 16.4 µM | SK-MEL-5 13.3 µM | SK-OV-3 20.1 µM | SN12C 15.5 µM | SNB-19 17.5 µM | SNB-75 1.26 µM | SR 2.6 µM | SW-620 2.79 µM | T47D 7.43 µM | TK-10 12.8 µM | U-251 14.3 µM | UACC-257 13.9 µM | UACC-62 7.45 µM | UO-31 12.1 µM
active: MCF7 0.843 µM
8.26 µM: HCT-15

CC(C)C(CC(=O)OCC(CO)OC(=O)CC(C(C)C)C(C)C)C(C)C (stereo not drawn)
16.9 µM: HCT-15
inactive: 786-0 12.4 µM | A498 15.3 µM | A549 11 µM | ACHN 10.9 µM | BT-549 19.1 µM | CAKI-1 12.3 µM | CCRF-CEM 5.53 µM | COLO 205 6.73 µM | DU-145 15.4 µM | EKVX 14 µM | HCC 2998 15.8 µM | HCT-116 16.2 µM | HOP-62 10.5 µM | HOP-92 2.75 µM | HT-29 17.4 µM | Hs-578T 4.85 µM | IGROV-1 19.1 µM | K562 6 µM | KM12 15.7 µM | M14 14.1 µM | MCF7 17.5 µM | MDA-MB-231 15.7 µM | MDA-MB-435 13.7 µM | MDA-N 13.6 µM | MOLT-4 10.1 µM | Malme-3M 15.1 µM | NCI-H226 16.1 µM | NCI-H23 16.6 µM | NCI-H460 11.8 µM | NCI-H522 12.6 µM | NCI/ADR-RES 13.5 µM | OVCAR-3 13.9 µM | OVCAR-4 18 µM | OVCAR-5 13 µM | PC-3 14.4 µM | RXF 393 16.6 µM | SF-268 14.3 µM | SF-295 6.27 µM | SK-MEL-28 16.2 µM | SK-MEL-2 18.2 µM | SK-MEL-5 11.9 µM | SK-OV-3 16.7 µM | SN12C 12.9 µM | SNB-19 14.7 µM | SNB-75 10.2 µM | SR 22.1 µM | SW-620 13.6 µM | T47D 16.6 µM | TK-10 13.3 µM | U-251 13.1 µM | UACC-257 17.1 µM | UACC-62 15.8 µM | UO-31 14.6 µM

CCN(CC)CCn1c2cc3c(cc2c(=O)c2cccnc21)OCCO3
> 10 µM: HCT-15
active: A498 0.0912 µM
inactive: 786-0 > 10 µM | A549 > 10 µM | ACHN 4.99 µM | BT-549 > 10 µM | CAKI-1 > 10 µM | CCRF-CEM 5.46 µM | COLO 205 > 10 µM | DU-145 > 10 µM | EKVX > 10 µM | HCC 2998 6.4 µM | HCT-116 4.72 µM | HL-60 > 10 µM | HOP-62 > 10 µM | HOP-92 > 10 µM | HT-29 > 10 µM | Hs-578T > 10 µM | IGROV-1 > 10 µM | KM12 > 10 µM | M14 > 10 µM | MCF7 7.82 µM | MDA-MB-231 9.51 µM | MDA-MB-435 > 10 µM | MDA-N > 10 µM | MOLT-4 3.78 µM | Malme-3M > 10 µM | NCI-H23 > 10 µM | NCI-H522 > 10 µM | NCI/ADR-RES > 10 µM | OVCAR-3 > 10 µM | OVCAR-4 > 10 µM | OVCAR-8 > 10 µM | PC-3 > 10 µM | RPMI-8226 > 10 µM | RXF 393 > 10 µM | SF-268 > 10 µM | SF-295 > 10 µM | SF-539 > 10 µM | SK-MEL-28 > 10 µM | SK-MEL-5 > 10 µM | SK-OV-3 > 10 µM | SN12C 9.71 µM | SNB-19 > 10 µM | SNB-75 > 10 µM | SR 4.44 µM | SW-620 5.28 µM | T47D > 10 µM | TK-10 > 10 µM | U-251 > 10 µM | UACC-257 > 10 µM | UACC-62 > 10 µM
